Data set [1] is described as follows: Inhibition of natural killer activity, 51Cr release cytotoxicity assay. In kind it is cell-based. Particulars: human, k562 cells, read-out: Spont. Release Target Cells Alone (K562). How it is done:
(§1) Compounds were tested for their effects on the ability of peripheral blood mononuclear cells to lyse NK-sensitive target cells, K562. NK activity was determined using ^51 Cr-labeled K562 erythromyeloid leukemia cells as targets, and normal peripheral blood mononuclear cells as effector cells, in a four hour cytotoxicity assay. Effector cells were isolated from fresh blood by Ficoll-Hypaque gradient centrifugation, and 100 μl of a 5×10^5 cell/well suspension were added to each well of a V-bottom microtiter plate. The compound 11a was diluted in RPMI 1640 medium containing 10% fetal calf serum and dispensed at 100 μl per well. Target cells (K562) were labeled for 30 minutes with 100 μCi of ^51 Cr, washed thoroughly and dispensed in a 20 μl volume at 10^4 cells/well. […] The microtiter plate was centrifuged at 50×g for 5 minutes and incubated in a humidified chamber with 5% CO2 at 37° C. After 4 hours, 100 μl were removed from each well and the radioactivity was measured with a LKB 1275 gamma counter. The percent specific lysis was calculated as follows:
(§2) % specific lysis=[(EXP-SR)/(TOTAL-B)]×100
(§3) where EXP (experimental value) was obtained using effector and target cells; SR (the spontaneous release) was obtained from target cells incubated with media alone; TOTAL release was obtained by hypotonic lysis in water; and B represents instrumental background. Means were calculated from quadruplicate wells and the standard deviations never exceeded 10%. Viability of the effector cells incubated with the test compound was determined by trypan blue exclusion.

The test system of data set [2] is K562 erythromyeloid leukemia cells (NK-sensitive target cells). The data set is described as above. Particulars: effector:target 50:1, 4 h. It counts as cell-based. How it is done: as §1, §2, §3
The test system of data set [3] is human complement. Put plainly: Inhibition of complement-mediated hemolysis, human serum, sensitized sheep erythrocytes. In kind it is biochemical. On the procedure:
The ability to inhibit complement was also tested by assaying for inhibition of complement-mediated red cell lysis (hemolysis). The inhibition of hemolysis was determined as a function of compound concentration. The compounds to be tested were diluted in 0.1M Hepes buffer (0.15N NaCl, pH 7.4), and 50 μl were added to each well of a V-bottom microtiter plate. Human serum, used as the complement source, was diluted 1 to 500 in Hepes buffer, and 50 μl were added to each well. Next, commercially available sheep erythrocytes with anti-sheep antibody (Diamedix Cat. No. 789-001) were used as received and added at 100 μl/well to initiate the complement pathway leading to hemolysis. The plate was incubated for 60 minutes at 37° C. and then centrifuged at 500×g for 10 minutes. The supernatants were removed and placed in a flat-bottom microtiter plate. The extent of hemolysis was measured as a function of the sample absorbance at 410 nm. The maximal absorbance (corresponding to maximal hemolysis), Amax, was obtained from the absorbance value of an erythrocyte sample containing only human serum, AS, less the absorbance of a sample containing only the red cells, A0. Thus, Amax =AS -A0. The difference between the absorbance of an erythrocyte sample containing both human serum and inhibitive compound, and the absorbance of a cell sample containing inhibitive compound only, was defined as Asample. The inhibition, IH, was expressed as the fraction (Amax -Asample)/Amax, and IH50 was defined as the concentration of inhibitive compound required to produce a value of IH=1/2.
The 4 substituted spirobenzofuran compounds of example 7 and the disubstituted spirobenzofuran compounds of example 8 were tested for their capacity to inhibit complement-mediated lysis of sheep red blood cells (SRBC) as described in Section 6.6.2 supra with the modification that the human serum used as the complement source was diluted to 1 to 100 in Hepes buffer, instead of […]. The results of the hemolysis assays are shown in FIG. 8 and Tables XI and XII.

Each structure is given as a SMILES string. Read-outs that look alike come from different tables or passages of the source.

With `COc1ccc(C(=O)O)c2c1CC1(CCCCC1)O2` [Compound 11a, 7-carboxy-4-methoxyspiro[benzofuran-2(3H)-cyclohexane]], the % spontaneous 51Cr release of K562 target cells alone at 4 h, 400 µM in data set [1] (0.4 mM) is 5%. The % spontaneous 51Cr release of K562 target cells alone at 4 h, 800 µM in data set [1] (0.8 mM) was 5%. Besides, the % spontaneous 51Cr release of K562 target cells alone at 4 h, 1600 µM in data set [1] (1.6 mM) amounted to 5%. Besides, the % spontaneous 51Cr release of K562 target cells alone at 4 h, 3200 µM in data set [1] (3.2 mM) was 5%. The % spontaneous 51Cr release of K562 target cells alone at 4 h, 6400 µM in data set [1] (6.4 mM) stood at 23%. Moreover, the “% Specific Lysis” value in data set [2] (0.4 mM) is given as 7%; in data set [2] (0.8 mM) it was 4%; in data set [2] (1.6 mM), 1%; in data set [2] (3.2 mM) it was -1%; in data set [2] (6.4 mM), 18%. For the same compound, the IC50 in data set [3] (Table VII, human serum, read-out: IHO50) is 1330 µM; in data set [3] (Table XI, human serum diluted 1 to 100, read-out: IH50 Mean), 1330 µM; in data set [3] (from FIG. 3 plot, read-out: IH50 (the source's name)) it was roughly 900 µM.
